The subject of test [1] is Tritrichomonas foetus. The test can be described thus: Anti-trichomonas activity against Trichomonas foetus C1 incubated for 24 hrs by hemocytometer counting method. The test is classed as functional, organism-based. Conditions: C1, 24 h.
The test system of test [2] is Tritrichomonas foetus. The test can be described thus: Anti-trichomonas activity against Trichomonas foetus D1 incubated for 24 hrs by hemocytometer counting method. The test is classed as functional, organism-based. Particulars: D1, 24 h.
In a further test the test system is Trichomonas vaginalis. The test can be described thus: Anti-trichomonas activity against Trichomonas vaginalis G3 incubated for 24 hrs by hemocytometer counting method. The class given is functional, organism-based. Conditions: G3, 24 h.
The test system of another test is U-251. The test can be described thus: Antiproliferative activity against human U-251 cells incubated for 24 to 48 hrs by CCK8 assay. The class given is functional, cell-based.
Test [3] relates to HeLa. The test can be described thus: Antiproliferative activity against human Hela cells incubated for 24 to 48 hrs by CCK8 assay. The test is classed as functional, cell-based.
Test [4] deals with HepG2. Nature of the test: Antiproliferative activity against human HepG2 cells incubated for 24 to 48 hrs by CCK8 assay. The test is classed as functional, cell-based.
Test [5] deals with A549. The test can be described thus: Antiproliferative activity against human A549 cells incubated for 24 to 48 hrs by CCK8 assay. The test is classed as functional, cell-based.
For test [6], the target named is Telomerase reverse transcriptase (Homo sapiens, UniProt O14746). Nature of the test: Inhibition of telomerase in human SGC-7901 cell extract by TRAP assay.
Test [7] deals with Entamoeba histolytica. The test can be described thus: Antiamoebic activity against Entamoeba histolytica HM-1:IMSS trophozoites measured after 72 hrs by microdilution method. The test is classed as functional, organism-based.
Test [8] concerns MCF7. The test can be described thus: cells. Particulars: Homo sapiens, MCF7, 24 h.
A further test has as its system MDA-MB-231. Nature of the test: Antiproliferative activity against human MDA-MB-231 cells after 24 hrs by MTT assay. Conditions: MDA-MB-231, 24 h. The test is classed as functional, cell-based.
The subject of the next test is HEK293. The test can be described thus: Cytotoxicity against HEK293 cells after 24 hrs by MTT assay. The test is classed as cell-based. Particulars: Homo sapiens, HEK293, 24 h.
The subject of test [9] is Escherichia coli. Nature of the test: Antibacterial activity against Escherichia coli DH52 by two-fold serial dilution technique. The test is classed as functional.
The subject of a further test is Staphylococcus aureus. The test can be described thus: Antibacterial activity against Methicillin-resistant Staphylococcus aureus N315 by two-fold serial dilution technique. The test is classed as functional.
The test system of test [10] is Proteus vulgaris. Nature of the test: Potency index, ratio of Chloromycin MIC to test compound MIC for antibacterial activity against Proteus vulgaris by two-fold serial dilution technique. The class given is functional.
The next test has as its system Cyberlindnera jadinii. The test can be described thus: Antifungal activity against Candida utilis by two-fold serial dilution technique. The class given is functional. Conditions: Williopsis jadinii.
The subject of another test is Shigella dysenteriae. The test can be described thus: Antibacterial activity against Shigella dysenteriae by two-fold serial dilution technique. The test is classed as functional.
The test system of the next test is Saccharomyces cerevisiae. Nature of the test: Antifungal activity against Beer yeast by two-fold serial dilution technique. The class given is functional.
For test [11], the system named is Proteus vulgaris. The test can be described thus: Antibacterial activity against Proteus vulgaris by two-fold serial dilution technique. The class given is functional.
For test [12], the system named is Proteus vulgaris. Nature of the test: Potency index, ratio of Metronidazole MIC to test compound MIC for antibacterial activity against Proteus vulgaris by two-fold serial dilution technique. The class given is functional.
Test [13] deals with Proteus vulgaris. Nature of the test: Potency index, ratio of Norfloxacin MIC to test compound MIC for antibacterial activity against Proteus vulgaris by two-fold serial dilution technique. The test is classed as functional.
Test [14] has as its system A549. Nature of the test: cells. Particulars: Homo sapiens, A549, 48 h.
Test [15] deals with MCF7. The test can be described thus: cells. Conditions: Homo sapiens, MCF7, 48 h.
The subject of test [16] is HepG2. Nature of the test: cells. Conditions: Homo sapiens, HepG2, 48 h.
For test [17], the system named is HeLa. The test can be described thus: cells. Particulars: Homo sapiens, 48 h.
The next test deals with Pseudomonas aeruginosa. The test can be described thus: Antibacterial activity against Pseudomonas aeruginosa ATCC 27853 by microbroth dilution method. The test is classed as functional.
Another test relates to Acinetobacter baumannii. The test can be described thus: Antibacterial activity against Acinetobacter baumannii by microbroth dilution method. The test is classed as functional.
The next test concerns Enterococcus faecalis. The test can be described thus: Antibacterial activity against Enterococcus faecalis by microbroth dilution method. The class given is functional.
Test [18] relates to Escherichia coli. Nature of the test: Antibacterial activity against Escherichia coli by microbroth dilution method. The test is classed as functional.
The subject of the next test is B16-F10. Nature of the test: Antiproliferative activity against mouse B16-F10 cells incubated for 24 to 48 hrs by MTT assay. The test is classed as functional, cell-based.
The subject of test [19] is Entamoeba histolytica. The test can be described thus: Antiamoebic activity against Entamoeba histolytica HM-1:IMSS trophozoites incubated for 2 days under anaerobic condition. The class given is functional, organism-based. Conditions: 48 h.
Another test relates to Giardia intestinalis. The test can be described thus: Antigiardial activity against Giardia intestinalis WB incubated for 2 days under anaerobic condition. Conditions: Giardia duodenalis, 48 h. The class given is functional, organism-based.

pIC50: −log10 of the molar value. Converted amounts (≈) assume the structure as drawn.

Telomerase reverse transcriptase, sequence (O14746 whole entry): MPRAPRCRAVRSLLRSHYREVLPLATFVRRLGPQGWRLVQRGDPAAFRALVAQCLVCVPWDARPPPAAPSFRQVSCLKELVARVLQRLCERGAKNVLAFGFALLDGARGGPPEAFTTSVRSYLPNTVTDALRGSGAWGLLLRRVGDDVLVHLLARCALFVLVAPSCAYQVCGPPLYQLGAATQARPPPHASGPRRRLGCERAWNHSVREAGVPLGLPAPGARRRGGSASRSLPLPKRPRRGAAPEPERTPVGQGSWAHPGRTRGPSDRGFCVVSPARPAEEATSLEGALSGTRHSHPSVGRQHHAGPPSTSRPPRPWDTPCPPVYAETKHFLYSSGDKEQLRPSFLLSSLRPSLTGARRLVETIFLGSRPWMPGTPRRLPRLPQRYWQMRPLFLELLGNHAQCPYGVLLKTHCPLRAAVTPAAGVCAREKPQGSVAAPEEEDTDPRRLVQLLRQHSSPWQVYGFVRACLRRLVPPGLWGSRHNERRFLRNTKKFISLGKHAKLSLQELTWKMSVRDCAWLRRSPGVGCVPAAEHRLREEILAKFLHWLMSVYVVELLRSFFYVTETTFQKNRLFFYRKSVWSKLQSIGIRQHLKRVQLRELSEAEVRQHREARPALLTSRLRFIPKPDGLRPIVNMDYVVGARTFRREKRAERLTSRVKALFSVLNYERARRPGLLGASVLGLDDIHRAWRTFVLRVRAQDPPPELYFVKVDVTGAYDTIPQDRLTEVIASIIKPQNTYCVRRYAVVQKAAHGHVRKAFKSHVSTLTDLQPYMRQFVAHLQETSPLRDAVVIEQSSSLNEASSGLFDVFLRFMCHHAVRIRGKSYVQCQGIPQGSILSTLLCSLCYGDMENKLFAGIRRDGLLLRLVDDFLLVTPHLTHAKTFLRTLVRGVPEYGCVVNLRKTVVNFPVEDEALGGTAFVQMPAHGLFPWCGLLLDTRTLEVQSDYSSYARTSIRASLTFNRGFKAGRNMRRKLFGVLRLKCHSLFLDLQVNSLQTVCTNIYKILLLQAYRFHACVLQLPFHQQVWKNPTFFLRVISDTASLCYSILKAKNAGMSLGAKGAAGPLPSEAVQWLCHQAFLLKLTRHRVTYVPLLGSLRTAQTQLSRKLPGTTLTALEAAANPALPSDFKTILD

Consider `Cc1ncc([N+](=O)[O-])n1CCn1cc(CN2C(=O)/C(=N\NC(N)=S)c3ccccc32)nn1`, for which the negative logarithm of the IC50 (pIC50) in the test on Tritrichomonas foetus [1] is 6.22; with Tritrichomonas foetus [2], 6.22; in the test on Trichomonas vaginalis, 5.59.

As for `O=C(OCCn1c([N+](=O)[O-])cnc1/C=C/c1ccc2ccccc2c1)c1nccc2ccccc12`, the pIC50 was 6.49 with U-251; 7.30 with HeLa [3]; 7.00 with HepG2 [4]; 6.96 in the test on A549 [5]; 6.01 in [6].

Molecule `Cc1ncc([N+](=O)[O-])n1CCOC(=O)Nc1ccc(OCc2cccc(I)c2)cc1` gave a pIC50 with Entamoeba histolytica [7] of 6.59.

Turning to `Cc1ncc([N+](=O)[O-])n1Cc1cn(CCCCCN2C(=O)C(=O)c3cc(F)ccc32)nn1`, the values for the pIC50 with MCF7 [8], in the test with MDA-MB-231 and with HEK293 were 4.15, 4.25 and less than 4.00, respectively.

Turning to `CCNc1ccc2c3c(cccc13)C(=O)N(CC(O)Cn1c([N+](=O)[O-])cnc1C)C2=O` (stereo not given), the MIC amounted to 40 µM (≈ 16.9 µg/mL) against Escherichia coli [9]; 40 µM (≈ 16.9 µg/mL) against Staphylococcus aureus; 20 µM (≈ 8.47 µg/mL) with Cyberlindnera jadinii; 10 µM (≈ 4.23 µg/mL) in the test with Shigella dysenteriae; 10 µM (≈ 4.23 µg/mL) in the test with Saccharomyces cerevisiae; 2 µM (≈ 0.847 µg/mL) with Proteus vulgaris [11]. Further, the Ratio with Proteus vulgaris [10] is given as 50; in the test with Proteus vulgaris [12], 95; with Proteus vulgaris [13], 10.

In the case of `COc1cc(/C=C\c2ncc([N+](=O)[O-])n2CCOC(=O)c2c[nH]c3ccccc23)cc(OC)c1OC`, the pIC50 was 7.46 in the test with A549 [14], 7.52 in the test on MCF7 [15], 7.40 in the test with HepG2 [16] and 7.82 in the test with HeLa [17].

`CCn1cc(C(=O)O)c(=O)c2cc(F)c(N3CCNCC3)cc21` [NORFLOXACIN]: the MIC turned out to be 1600 µM (≈ 513 µg/mL) against Pseudomonas aeruginosa, 803 µM (≈ 256 µg/mL) against Acinetobacter baumannii, 803 µM (≈ 256 µg/mL) against Enterococcus faecalis and 1600 µM (≈ 513 µg/mL) against Escherichia coli [18].

For the molecule `Cc1cc(C)nc(NS(=O)(=O)c2ccc(/N=C\c3ccc(OCCn4c([N+](=O)[O-])cnc4C)cc3)cc2)n1`, in the test on B16-F10, the pIC50 was 6.72.

As to `Cc1ncc([N+](=O)[O-])n1CCn1cc(CN2C(=O)C(=C3OCCO3)c3cc(Br)ccc32)nn1`, the pIC50 with Entamoeba histolytica [19] was 5.82; with Giardia intestinalis it was 6.10.

Turning to `Cc1ncc([N+](=O)[O-])n1Cc1cn(CCCCN2C(=O)C(=O)c3cc(Cl)ccc32)nn1`, the results for the pIC50 in the test on MCF7 [8], in the test with MDA-MB-231 and in the test on HEK293 were 4.27, 4.58 and less than 4.00, respectively.

(Values after ChEMBL document CHEMBL4813920, “Metronidazole-conjugates: A comprehensive review of recent developments towards synthesis and medicinal perspective” (Eur J Med Chem, 2021).)
